From patent EP1803452A1, “ESTER DERIVATIVE AND PHARMACEUTICAL USE THEREOF” (Japan Tobacco, Inc., priority 2004, dated 2006)

Legend:
[1] = Stability test in buffer (pH 7.4); format: physicochemical; details: phosphate buffer/acetonitrile 7:3, 100 mM potassium phosphate buffer (pH 7.4) and acetonitrile 7:3 (v/v), LC/MS; for remaining at 10 min: 10 minutes at 37°C, read-out: Buf. remaining rate (%/10min); for remaining at 1 h: 60 minutes at 37°C, read-out: Buf. remaining rate (%/60min)
Experimental: In the tables, Buf. remaining rate was determined by stability test in buffer (pH 7.4) as described below. A sample dissolved in DMSO was mixed with a mixed solution of 100 mM potassium phosphate buffer and acetonitrile in the ratio of 7:3 (v/v). The mixture was incubated at 37°C for 0, 10, and 60 minutes, and acetonitrile containing formic acid (final concentration: 0.1%) was added thereto. The solution was centrifuged, and the concentration of the sample (unchanged form) in the supernatant was determined by high performance liquid chromatography/mass spectrometry (LC/MS). Based on the data obtained, Buf. remaining rate (%) was calculated according to the following equation. Buf.remaining rate(%) = amount of sample 0,10, or 60 minutes after incubation/amount of sample at zero time after incubation × 100 [formula]

[2] = Metabolic stability test in liver S9; format: in vitro ADME; details: pH 7.4, human liver S9 2 mg protein/mL, LC/MS; for remaining at 10 min: unchanged form after 10 minutes at 37°C, read-out: Remaining rate in human liver S9 (%/10min); for remaining at 1 h: unchanged form after 60 minutes at 37°C, read-out: Remaining rate in human liver S9 (%/60min)
Experimental: Human liver S9 (final concentration: 2 mg protein/mL), was suspended in 100 mM potassium phosphate buffer (pH 7.4, containing β-nicotinamide adenine dinucleotide phosphate: 1.3 mM, D-glucose-6- phosphate: 3.3 mM, magnesium chloride: 3.3 mM, glucose-6-phosphate dehydrogenase:0.4 U/mL). The suspension was mixed with a solution of a sample dissolved in DMSO. The solution was incubated at 37°C for 0, 10 and 60 minutes, and an acetonitrile containing formic acid (final concentration: 0.1%) was added thereto. The solutions were centrifuged, and the concentration of the sample (unchanged form) in the supernatant was determined by high performance liquid chromatography/mass spectrometry (LC/MS). Based on the data obtained, remaining rate (%) was calculated according to the following equation. Remaining rate(%) = amount of sample 0,10, or 60 minutes after [formula] incubation/amount of sample at zero time after incubation × 100 [formula]
(§1) With respect to the compounds obtained in Working Examples according to the present invention (Compounds 1-1 to 1-115, 2-1, 3-1, 3-2, and 4-1 to 4-4), the results of the remaining rate in human liver S9 and plasma are shown in Tables 28 to 32.

[3] = Metabolic stability test in plasma; format: in vitro ADME, human; details: LC/MS; for remaining at 10 min: unchanged form after 10 minutes at 37°C in human plasma, read-out: Remaining rate in human plasma (%/10min); for remaining at 1 h: unchanged form after 60 minutes at 37°C in human plasma, read-out: Remaining rate in human plasma (%/60min)
Experimental: A sample dissolved in DMSO was added to plasma of human or animal species (mouse and hamster). The solutions were incubated at 37°C for 0, 10 and 60 minutes, and acetonitrile containing formic acid (final concentration: 0.1%) was added thereto. The solutions were centrifuged, and the concentration of the sample (unchanged form) in the supernatant was determined by high performance liquid chromatography/mass spectrometry (LC/MS). Based on the data obtained, the remaining rate (%) was calculated according to the following equation. Remaining rate(%) = amount of sample 0,10, or 60 minutes after incubation/amount of sample at zero time after incubation × 100 [formula]
as §1

COC(=O)c1ccc(OC(=O)CCCc2ccc(NC(=O)c3ccccc3-c3ccc(C(F)(F)F)cc3)c(C(=O)N(C)C)c2)cc1OC [Compound 1-17, 4-(4-{3-dimethylcarbamoyl-4-[(4'-trifluoromethylbiphenyl-2-carbonyl)amino]phenyl}butyryloxy) -2-methoxybenzoic acid methyl ester]
remaining at 10 min [1]: 100%
remaining at 1 h [1]: 105%
remaining at 10 min [2]: 0%
remaining at 1 h [2]: 0%
remaining at 10 min [3]: 0%
remaining at 1 h [3]: 0%

COC(=O)c1ccc(OC(=O)CCCc2ccc(NC(=O)c3ccccc3-c3ccc(C(F)(F)F)cc3)c(C(=O)N(C)C)c2)cc1Cl [Compound 1-18, 2-chloro-4-(4-{3-dimethylcarbamoyl-4-[(4'-trifluoromethylbiphenyl-2-carbonyl)amino]phenyl}butyryloxy)benzoic acid methyl ester]
remaining at 10 min [1]: 101%
remaining at 1 h [1]: 98%
remaining at 10 min [2]: 0%
remaining at 1 h [2]: 0%
remaining at 10 min [3]: 0%
remaining at 1 h [3]: 0%

COC(=O)c1ccc(OC(=O)CCCc2ccc(NC(=O)c3ccccc3-c3ccc(C(F)(F)F)cn3)c(C(=O)N(C)C)c2)cc1 [Compound 1-19, 4-(4-{3-dimethylcarbamoyl-4-[2-(5-trifluoromethylpyridin-2-yl)benzoylamino]phenyl}butyryloxy)benzoic acid methyl ester]
remaining at 10 min [1]: 107%
remaining at 1 h [1]: 100%
remaining at 10 min [2]: 0%
remaining at 1 h [2]: 0%
remaining at 10 min [3]: 0%
remaining at 1 h [3]: 0%

COC(=O)c1ccc(OC(=O)CCCc2ccc(NC(=O)c3ccccc3-c3ccc(C(F)(F)F)cc3)c(C(=O)N(C)C)c2)c(C(F)(F)F)c1 [Compound 1-20, 4-(4-{3-dimethylcarbamoyl-4-[(4'-trifluoromethylbiphenyl-2-carbonyl)amino]phenyl}butyryloxy)-3-trifluoromethylbenzoic acid methyl ester]
remaining at 10 min [1]: 102%
remaining at 1 h [1]: 99%
remaining at 10 min [2]: 0%
remaining at 1 h [2]: 0%
remaining at 10 min [3]: 0%
remaining at 1 h [3]: 0%

COC(=O)c1ccc(OC(=O)CCCc2ccc(NC(=O)c3ccccc3-c3ccc(C(F)(F)F)cc3)c(C(=O)N(C)C)c2)cc1C(F)(F)F [Compound 1-21, 4-(4-{3-dimethylcarbamoyl-4-[(4'-trifluoromethylbiphenyl-2-carbonyl)amino]phenyl}butyryloxy)-2-trifluoromethylbenzoic acid methyl ester]
remaining at 10 min [1]: 104%
remaining at 1 h [1]: 103%
remaining at 10 min [2]: 0%
remaining at 1 h [2]: 0%
remaining at 10 min [3]: 0%
remaining at 1 h [3]: 0%

CC(=O)c1ccc(OC(=O)CCCc2ccc(NC(=O)c3ccccc3-c3ccc(C(F)(F)F)cc3)c(C(=O)N(C)C)c2)cc1 [Compound 1-22, 4-(3-dimethylcarbamoyl-4-[(4'-trifluoromethylbiphenyl-2-carbonyl)amino]phenyl}butyric acid 4-acetylphenyl ester]
remaining at 10 min [1]: 96%
remaining at 1 h [1]: 98%
remaining at 10 min [2]: 0%
remaining at 1 h [2]: 0%
remaining at 10 min [3]: 8%
remaining at 1 h [3]: 0%

CN(C)C(=O)c1cc(CCCC(=O)Oc2ccc(C#N)cc2)ccc1NC(=O)c1ccccc1-c1ccc(C(F)(F)F)cc1 [Compound 1-23, 4-{3-dimethylcarbamoyl-4-[(4'-trifluoromethylbiphenyl-2-carbonyl)amino]phenyl}butyric acid 4-cyanophenyl ester]
remaining at 10 min [1]: 99%
remaining at 1 h [1]: 99%
remaining at 10 min [2]: 0%
remaining at 1 h [2]: 0%
remaining at 10 min [3]: 21%
remaining at 1 h [3]: 0%

CN(C)C(=O)c1cc(CCCC(=O)Oc2ccc(C(=O)OCc3ccccc3)cc2)ccc1NC(=O)c1ccccc1-c1ccc(C(F)(F)F)cc1 [Compound 1-24, 4-(4-{3-dimethylcarbamoyl-4-[(4'-trifluoromethylbiphenyl-2-carbonyl)amino]phenyl}butyryloxy)benzoic acid benzyl ester]
remaining at 10 min [1]: 95%
remaining at 1 h [1]: 95%
remaining at 10 min [2]: 10%
remaining at 1 h [2]: 6%
remaining at 10 min [3]: 9%
remaining at 1 h [3]: 4%

CN(C)C(=O)c1cc(CCCC(=O)Oc2ccc(C(=O)O)cc2)ccc1NC(=O)c1ccccc1-c1ccc(C(F)(F)F)cc1 [Compound 1-25, 4-(4-{3-dimethylcarbamoyl-4-[(4'-trifluoromethylbiphenyl-2-carbonyl)amino]phenyl}butyryloxy) benzoic acid]
remaining at 10 min [1]: 99%
remaining at 1 h [1]: 101%
remaining at 10 min [2]: 4%
remaining at 1 h [2]: 0%
remaining at 10 min [3]: 89%
remaining at 1 h [3]: 59%

COC(=O)c1ccc(OC(=O)CCCc2ccc(NC(=O)c3ccccc3-c3ccc(C(F)(F)F)cc3)c(C(=O)N3CCOCC3)c2)cc1 [Compound 1-26, 4-(4-{3-(morpholine-4-carbonyl)-4-[(4'-trifluoromethylbiphenyl-2-carbonyl)amino]phenyl}butyryloxy)benzoic acid methyl ester]
remaining at 10 min [1]: 99%
remaining at 1 h [1]: 102%
remaining at 10 min [2]: 0%
remaining at 1 h [2]: 0%
remaining at 10 min [3]: 23%
remaining at 1 h [3]: 0%

COC(=O)c1ccc(OC(=O)CCc2ccc(NC(=O)c3ccccc3-c3ccc(C(F)(F)F)cc3)c(C(=O)N(C)C)c2)cc1 [Compound 1-27, 4-(3-{3-dimethylcarbamoyl-4-[(4'-trifluoromethylbiphenyl-2-carbonyl)amino]phenyl}propionyloxy)benzoic acid methyl ester]
remaining at 10 min [1]: 97%
remaining at 1 h [1]: 102%
remaining at 10 min [2]: 0%
remaining at 1 h [2]: 0%
remaining at 10 min [3]: 10%
remaining at 1 h [3]: 0%

COC(=O)c1ccc(OC(=O)CCCc2ccc(NC(=O)c3cccnc3-c3ccc(C(F)(F)F)cc3)c(C(=O)N(C)C)c2)cc1 [Compound 1-28, 4-[4-(3-dimethylcarbamoyl-4-{[2-(4-trifluoromethylphenyl)pyridine-3-carbonyl]amino}phenyl)butyryloxy]benzoic acid methyl ester]
remaining at 10 min [1]: 101%
remaining at 1 h [1]: 102%
remaining at 10 min [2]: 0%
remaining at 1 h [2]: 0%
remaining at 10 min [3]: 0%
remaining at 1 h [3]: 0%

CC(C)OC(=O)c1ccc(OC(=O)CCCc2ccc(NC(=O)c3ccncc3-c3ccc(C(F)(F)F)cc3)c(C(=O)N(C)C)c2)cc1 [Compound 1-29, 4-[4-(3-dimethylcarbamoyl-4-{[3-(4-trifluoromethylphenyl)pyridine-4-carbonyl]amino}phenyl)butyryloxy]benzoic acid isopropyl ester]
remaining at 10 min [1]: 98%
remaining at 1 h [1]: 98%
remaining at 10 min [2]: 1%
remaining at 1 h [2]: 0%
remaining at 10 min [3]: 41%
remaining at 1 h [3]: 0%

COC(=O)c1ccc(OC(=O)CCCc2ccc(NC(=O)c3ccncc3-c3ccc(C(F)(F)F)cc3)c(C(=O)N(C)C)c2)cc1 [Compound 1-30, 4-[4-(3-dimethylcarbamoyl-4-{[3-(4-trifluoromethylphenyl)pyridine-4-carbonyl]amino}phenyl)butyryloxy]benzoic acid methyl ester]
remaining at 10 min [1]: 99%
remaining at 1 h [1]: 99%
remaining at 10 min [2]: 0%
remaining at 1 h [2]: 0%
remaining at 10 min [3]: 0%
remaining at 1 h [3]: 0%

CC(C)OC(=O)c1ccc(OC(=O)CCCc2ccc(NC(=O)c3cccnc3-c3ccc(C(F)(F)F)cc3)c(C(=O)N(C)C)c2)cc1 [Compound 1-31, 4-[4-(3-dimethylcarbamoyl-4-{[2-(4-trifluoromethylphenyl)pyridine-3-carbonyl]amino}phenyl)butyryloxy]benzoic acid isopropyl ester]
remaining at 10 min [1]: 101%
remaining at 1 h [1]: 102%
remaining at 10 min [2]: 0%
remaining at 1 h [2]: 0%
remaining at 10 min [3]: 26%
remaining at 1 h [3]: 0%
